# Measured values as given in patent US5068340A, “Isothiazolyl substituted glycerol derivatives containing phosphate groups” (priority 1986, dated 1991).
# Counter-ions that a name gives are not always drawn.
# Experiments:
# PAF-induced hypotension = assay: Inhibition of PAF-induced hypotension (rat, i.v.); format: in vivo, rats of the Wistar-Imamichi strain; details: 50% inhibitory dose, intravenous, cumulative doses, 10 ng/kg i.v. 1-C16:0 PAF, Inactin anesthesia, rats, read-out: Inhibition of Hypotension ID50
# Description: Inhibition of PAF-induced hypotension
# The test animals employed were rats of the Wistar-Imamichi strain, each weighing between 350 and 450 g.
# Under Inactin anesthesia (90 mg/kg administered intraperitoneally) the left femoral artery and vein of each test animal were cannulated to enable the arterial blood pressure to be monitored continuously and for drug administration, respectively. At intervals of about 5 minutes, each animal was given by intravenous injection 10 ng/kg of synthetic 1-C16:0 PAF until a steady hypotensive response was achieved. At this time, the drug to be tested was administered by intravenous injection in doses increasing cumulatively by a factor of 3. Within 1 minute of this injection, a further 10 ng/kg of the 1-C16:0 PAF was administered. The hypotensive response to PAF was inhibited by the test drug in a dose-related manner.
# The PAF was administered in the form of a solution in physiological saline containing 0.25% w/v bovine serum albumin. The test drugs were dissolved in physiological saline containing either 0.25% w/v BSA or 20% v/v ethanol.
# The 50% inhibitory dose (ID50) was calculated from the dose-response curve constructed for the inhibition of PAF-induced hypotension.
# This test was carried out using compounds of the invention, as well as the prior art compound CV-3988, disclosed in U.S. Pat. No. 4,408,052 and represented by the foregoing formula (B).
# [1] = tested on: PAF-induced platelet aggregation; assay: Inhibition of PAF-induced platelet aggregation in vitro (platelet-rich plasma); format: cell-based; details: Oryctolagus cuniculus, 5 min, rabbit plasma, platelet count 6×10^5/μl, C16:0 PAF 1×10^-8-3×10^-8 M final
# Description: Inhibition of PAF-induced platelet aggregation in vitro
# Blood was drawn from a rabbit and immediately mixed with one nineth of its volume of a 3.8% w/v aqueous solution of sodium citrate. A platelet-rich plasma (PRP) was obtained as a supernatant by centrifugation of the blood at 150×g for 15 minutes at room temperature. The precipitated fraction was centrifuged for a further 15 minutes at 1000×g to obtain a platelet-poor plasma (PPP) as a supernatant. Appropriate proportions of this PRP and PPP were mixed to obtain a plasma having a platelet count of 6×10^5 /μl.
# Platelet aggregation was determined by the method of Born et al. [G. V. R. Born et al., J. Physiol., 62, 67-68 (1962)] where an increase in light transmission is measured by the aggregometer.
# 25 μl of a saline solution containing the compound to be tested at an appropriate concentration was added to 250 μl of the above plasma. One minute thereafter. […] The aggregation resulting from the addition of PAF alone, without the prior addition of the test compound was taken as 100%.
# The IC50 values (i.e. concentrations to inhibit aggregation by 50%) were calculated from dose-response curves and are shown in Table 6.
IC50 [1],SMILES,ED50 (PAF-induced hypotension)
3.4 µM,"CCCCCCCCCCCCCCCCCNC(=O)OCC(COP(=O)([O-])OCC[n+]1ccsc1)Oc1ccon1 (racemic) [Example 13, (2RS)-3-(N-Heptadecylcarbamoyloxy)-2-(3-isoxazolyloxy)propyl 2-thiazolioethyl phosphate (inner salt)]",0.096 mg/kg
4.8 µM,"CCCCCCCCCCCCCCCCCNC(=O)OCC(COP(=O)([O-])OCC[n+]1ccsc1)Oc1cc(C)on1 (racemic) [Example 18, (2RS)-3-(N-Heptadecylcarbamoyloxy)-2-(5-methyl-3-isoxazolyloxy)propyl 2-thiazolioethyl phosphate (inner salt)]",0.081 mg/kg
1.4 µM,"CCCCCCCCCCCCCCCc1cc(OCC(COP(=O)([O-])OCCCCCC[n+]2ccsc2)Oc2cc(C)on2)no1 (racemic) [Example 23, (2RS)-3-(5-Pentadecyl-3-isoxazolyloxy)-2-(5-methyl-3-isoxazolyloxy)propyl 6-thiazoliohexyl phosphate (inner salt)]",0.067 mg/kg
0.31 µM,"CCCCCCCCCCCCCCCc1cc(OCC(COCCCCCCC[n+]2ccsc2)Oc2cc(C)on2)no1 (racemic) [Example 24, (2RS)-1-O-(5-Pentadecyl-3-isoxazolyl)-2-O-(5-methyl-3-isoxazolyl)-3-(7-thiazolioheptyl)glycerol methanesulfonate]",0.03 mg/kg
0.27 µM,"CCCCCCCCCCCCCCCc1cc(OCC(COC(=O)NCCCCC[n+]2ccsc2)Oc2cc(C)on2)no1 (racemic) [Example 25, (2RS)-1-O-(5-Pentadecyl-3-isoxazolyl)-2-O-(5-methyl-3-isoxazolyl)-3-O-{N-(5-thiazoliopentyl)carbamoyl}glycerol bromide]",0.055 mg/kg
0.31 µM,"CCCCCCCCCCCCCCCCCNC(=O)OCC(COC(=O)NCCCCC[n+]1ccsc1)Oc1cc(C)on1.[Br-] (racemic) [Example 33, 3-{5-[(2RS)-3-(N-Heptadecylcarbamoyloxy)-2-(5-methyl-3-isoxazolyloxy)propoxycarbonylamino]pentyl}thiazolium bromide]",0.086 mg/kg
0.081 µM,"CCCCCCCCCCCCCCCCCNC(=O)OCC(COC(=O)N(Cc1cccc[n+]1CC)C(C)=O)Oc1ccon1 (racemic) [Example 38, 2-{N-Acetyl-N-[(2RS)-3-(N-Heptadecylcarbamoyloxy)-2-(3-isoxazolyloxy)propoxycarbonyl]aminomethyl}-1-ethylpyridinium chloride]",0.004 mg/kg
0.35 µM,"CCCCCCCCCCCCCCCCc1cc(OC[C@H](COC(=O)N[C@H](CCCCC[n+]2ccsc2)C(=O)OCC)Oc2ccon2)no1.CS(=O)(=O)[O-] (racemic) [Example 41, 3-{(6RS)-6-Ethoxycarbonyl-6-[(2RS)-3-(5-hexadecyl-3-isoxazolyloxy)-2-(3-isoxazolyloxy)propoxy]carbonylaminohexyl}thiazolium methanesulfonate]",0.054 mg/kg
9.8 µM,"CCCCCCCCCCCCCCCCCCNC(=O)OCC(COP(=O)([O-])OCC[n+]1ccsc1)OC (stereo not drawn) [CV-3988, reference compound]",0.415 mg/kg
